Experimental findings from patent publication US7833985B2, “Angiotensin-converting enzyme inhibitory peptides” (Suntory Holdings Limited, priority 2003, dated 2010) are described below.

The target of the experiment is T1, ACE from rabbit lung (Oryctolagus cuniculus, UniProt P12822).
T1 construct: ACE from rabbit lung (Sigma); purchased Sigma; host or cells: rabbit lung
T1 sequence (P12822 34-1310): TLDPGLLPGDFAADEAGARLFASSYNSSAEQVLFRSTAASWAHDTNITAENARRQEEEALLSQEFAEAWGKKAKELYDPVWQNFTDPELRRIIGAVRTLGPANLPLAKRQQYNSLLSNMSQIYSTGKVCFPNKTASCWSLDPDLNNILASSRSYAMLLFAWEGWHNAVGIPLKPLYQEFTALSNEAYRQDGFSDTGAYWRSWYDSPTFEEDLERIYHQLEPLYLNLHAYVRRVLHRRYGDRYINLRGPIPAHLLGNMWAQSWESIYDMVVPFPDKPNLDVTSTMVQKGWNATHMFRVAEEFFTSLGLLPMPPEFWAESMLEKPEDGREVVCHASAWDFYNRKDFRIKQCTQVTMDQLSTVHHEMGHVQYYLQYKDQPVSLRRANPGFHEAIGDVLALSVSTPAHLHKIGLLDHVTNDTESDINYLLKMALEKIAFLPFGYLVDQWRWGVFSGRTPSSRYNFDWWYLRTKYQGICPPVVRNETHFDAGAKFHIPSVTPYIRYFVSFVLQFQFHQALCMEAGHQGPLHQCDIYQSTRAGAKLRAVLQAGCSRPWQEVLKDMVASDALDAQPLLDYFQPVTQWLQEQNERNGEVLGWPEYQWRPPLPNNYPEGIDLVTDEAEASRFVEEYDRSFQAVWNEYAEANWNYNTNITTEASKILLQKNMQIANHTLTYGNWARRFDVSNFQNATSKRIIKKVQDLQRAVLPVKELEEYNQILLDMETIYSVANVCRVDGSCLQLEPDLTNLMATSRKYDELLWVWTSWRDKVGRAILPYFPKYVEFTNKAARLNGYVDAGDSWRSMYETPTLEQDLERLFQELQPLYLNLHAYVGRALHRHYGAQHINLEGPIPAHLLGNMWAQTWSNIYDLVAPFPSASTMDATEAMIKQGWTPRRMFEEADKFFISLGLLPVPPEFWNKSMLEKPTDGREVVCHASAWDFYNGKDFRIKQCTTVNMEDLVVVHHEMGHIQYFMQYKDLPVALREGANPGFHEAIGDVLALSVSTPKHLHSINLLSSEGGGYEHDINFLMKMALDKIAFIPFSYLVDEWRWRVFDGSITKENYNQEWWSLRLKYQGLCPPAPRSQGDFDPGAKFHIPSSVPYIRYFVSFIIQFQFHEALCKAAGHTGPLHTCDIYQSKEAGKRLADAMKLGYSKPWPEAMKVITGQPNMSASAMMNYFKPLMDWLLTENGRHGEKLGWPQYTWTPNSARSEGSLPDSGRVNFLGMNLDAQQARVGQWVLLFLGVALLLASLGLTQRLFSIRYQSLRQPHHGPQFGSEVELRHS
Put plainly: ACE inhibitory activity (IC50), fluorometric Bz-Gly-His-Leu hydrolysis. The class given is biochemical. Conditions: peptide purified from thermolysin digestion product of sesame protein; 5 μl portion of each fraction. The protocol:
In the present invention, the ACE inhibitory activity (IC50) was measured in accordance with the following method.
5 μl of a sample containing the peptide of the invention was pipetted into a 96-well microplate. After adding 25 μl of the buffer and 10 μl of the enzyme, the mixture was thoroughly stirred and incubated at 37° C. for 5 minutes. After adding 10 μl of the substrate, the mixture was reacted at 37° C. for 30 minutes. Then the reaction was ceased by adding 40 μl of 0.1 N NaOH. […] Then the amount of His-Leu formed by the hydrolysis by ACE was determined by exciting (at 355 nm) the fluorescent substance formed by the reaction between the amino group in the histidine residue and o-phthalaldehyde and measuring the fluorescence wavelength at 460 nm. Then the percentage inhibition by the peptide of the invention was determined in accordance with the following equation and the ACE inhibitory activity (IC50) was calculated. Percentage inhibition={1−(A−a)/(B−b)}×100 • A: Measurement of fluorescence when the sample was added. • a: Measurement of fluorescence when the sample was added and the buffer was added as a substitute for the enzyme. • B: Measurement of fluorescence when distilled water was added as a substitute for the sample. • b: Measurement of fluorescence when distilled water was added as a substitute for the sample and the buffer was added as a substitute for the enzyme.

As to Ile-Val-Tyr, the “ACE inhibitory activity of the C30 HPLC fractions identified as the peptide” value is given as “strong ACE inhibitory activities”.
